Like-named read-outs stand apart in the source and are kept apart here.
Legend:
[1] = molecular target: T1, V600E mutant B-raf (Homo sapiens, UniProt P15056, V600E); test: B-raf cell-based assay (ratio of phospho-ERK1/2 to total ERK1/2 in A375 cells); conditions: A375 human melanoma cells, P-ERK/total ERK
T1 construct: A375 cells, a human melanoma cell line having the V600E mutant B-raf is used in this assay; endogenous in cells; host or cells: A375 human melanoma cells
Experimental: A cell-based assay was optimized to assay the ability of compounds to inhibit B-raf activity in a whole cell context. […] The cell-based assay quantifies the ratio of phospho-ERK1/2 to total ERK1/2 and can thereby assay the cellular inhibition of B-raf kinase activity. A375 cells are plated into 96 well plates and grown to confluence. The cells are then changed into starve media (DMEM/0.1% BSA) for 60 minutes. Compounds in DMSO dose curves are then diluted in starve media and added to cells. […] After a 60 minute incubation the cells are fixed for 20 minutes at RT in 4% formaldehyde with 0.1% Triton X-100, protease and phosphatase inhibitors in PBS. The cells are washed four times in PBS then blocked for 60 minutes using a one to one mix of Odyssey blocking buffer (Li-Cor Biosciences, Inc) and PBS. Primary antibodies (rabbit anti-phospho p42/p44 MAPK (P-ERK1/2) from Cell Signaling Technology and mouse anti-ERK2 from Santa Cruz Biotechnology) are diluted in blocking buffer, added to the cells and incubated overnight at 4° C. The cells are then washed four times in PBS/0.1% Tween-20. Secondary antibodies (anti-mouse IRDye 800CW from Rockland, Inc and anti-rabbit AlexaFlour680 from Molecular Probes) are diluted in blocking buffer/0.5% Tween and incubated on cells for 60 minutes. After 4 washes in PBS/0.1% Tween-20 the microplate is scanned on an Odyssey Infrared Imager (Li-Cor Bioscience) which can read the signal given by the two secondary antibodies on their respective channels. The ratio of P-ERK/total ERK is determined and IC50s generated using Excel-XLfit software.

[2] = molecular target: recombinant HuBraf V600E (Homo sapiens, UniProt P15056, V600E); test: B-raf Homogenous Time Resolved Fluorescent (HTRF) kinase assay; format: biochemical; conditions: human mutant B-raf V600E, substrate MEK1, 10 uM ATP, read-out: HTRF Enzyme assay Data IC50
recombinant HuBraf V600E, sequence (P15056 whole entry V600E): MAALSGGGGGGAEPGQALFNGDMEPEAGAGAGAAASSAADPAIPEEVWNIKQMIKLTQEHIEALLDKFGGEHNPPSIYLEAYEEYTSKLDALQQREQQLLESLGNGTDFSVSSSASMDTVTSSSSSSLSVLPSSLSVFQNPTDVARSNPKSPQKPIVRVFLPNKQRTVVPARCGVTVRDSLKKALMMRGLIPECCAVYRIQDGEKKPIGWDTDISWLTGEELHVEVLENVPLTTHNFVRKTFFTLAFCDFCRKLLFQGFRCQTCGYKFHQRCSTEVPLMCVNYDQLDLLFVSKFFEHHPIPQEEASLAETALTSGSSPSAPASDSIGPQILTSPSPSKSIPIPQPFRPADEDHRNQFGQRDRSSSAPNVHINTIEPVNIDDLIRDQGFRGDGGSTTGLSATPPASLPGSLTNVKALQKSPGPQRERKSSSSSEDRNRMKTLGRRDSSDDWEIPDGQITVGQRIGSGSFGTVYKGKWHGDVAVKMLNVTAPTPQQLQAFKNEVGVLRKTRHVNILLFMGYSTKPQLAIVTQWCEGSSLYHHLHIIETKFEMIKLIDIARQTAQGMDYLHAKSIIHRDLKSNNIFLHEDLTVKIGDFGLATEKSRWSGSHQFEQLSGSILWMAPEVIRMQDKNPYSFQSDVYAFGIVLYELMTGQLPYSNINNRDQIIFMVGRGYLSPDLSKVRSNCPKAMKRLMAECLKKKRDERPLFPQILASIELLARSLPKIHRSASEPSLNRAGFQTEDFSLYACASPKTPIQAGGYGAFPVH
Experimental: B-raf-Homogenous Time Resolved Fluorescent (HTRF) Kinase Assay
The final concentration of the kinase reaction buffer is 50 mM Tris-HCL pH 7.5, 10 mM MgCl2, 0.5% glucose, 0.5 mM DTT, 0.01% BSA. […] The detection reaction proceeds for one hour and is read on a RubyStar (BMG Labtech) counter. IC50s for the test compounds are generated using Excel-XLfit software.

T1 sequence (P15056 whole entry V600E): as above

SMILES	IC50 ([1]; Table II) [nM]	IC50 ([2]; Table II) [nM]	IC50 ([1]; Table I) [nM]	IC50 ([2]; Table I) [nM]
Cc1ccc2c(Nc3ccc4c(c3)OC(F)(F)O4)ncnc2c1Nc1ncccc1-c1ncnc2[nH]cnc12 [Example 74, N-4-(2,2-difluoro-1,3-benzodioxol-5-yl)-7-methyl-N-8-(3-(9H-purin-6-yl)-2-pyridinyl)-4,8-quinazolinediamine]	4	8	–	–
Cc1ccc2c(Nc3cccc(C(F)(F)F)c3)nccc2c1Nc1ncccc1-c1ncnc2[nH]cnc12 [Example 58, 6-methyl-N-5-(3-(9H-purin-6-yl)-2-pyridinyl)-N-1-(3-(trifluoromethyl)phenyl)-1,5-isoquinolinediamine]	–	–	6	6
Cc1ccc2c(Nc3ccc(C#N)cc3)nccc2c1Nc1ncccc1-c1ncnc2[nH]cnc12 [Example 57, 4-((6-methyl-5-((3-(9H-purin-6-yl)-2-pyridinyl)amino)-1-isoquinolinyl)amino)benzonitrile]	–	–	4	0.6
C#Cc1cccc(Nc2nccc3c(Nc4ncccc4-c4ncnc5[nH]ccc45)c(C)ccc23)c1 [Example 43, N-1-(3-ethynylphenyl)-6-methyl-N~5~-(3-(7H-pyrrolo[2,3-d]pyrimidin-4-yl)-2-pyridinyl)-1,5-isoquinolinediamine]	–	–	10	3
Cc1ccc2c(Nc3ccc(C(F)(F)F)cc3)nccc2c1Nc1ncccc1-c1ncnc2[nH]ccc12 [Example 53, 6-methyl-N-5-(3-(7H-pyrrolo[2,3-d]pyrimidin-4-yl)-2-pyridinyl)-N-1-(4-(trifluoromethyl)phenyl)-1,5-isoquinolinediamine]	–	–	52	47
Cc1ccc2c(Nc3ccc4c(C)cc(=O)[nH]c4c3)nccc2c1Nc1ncccc1-c1ncnc2[nH]ccc12 [Example 52, 4-methyl-7-((6-methyl-5-((3-(7H-pyrrolo[2,3-d]pyrimidin-4-yl)-2-pyridinyl)amino)-1-isoquinolinyl)amino)-2(1H)-quinolinone]	–	–	7	7
Cc1ccc2c(Nc3ccc4c(c3)NC(=O)[C@@H]4C)nccc2c1Nc1ncccc1-c1ncnc2[nH]ccc12 [Example 47, (3R)-3-methyl-6-((6-methyl-5-((3-(7H-pyrrolo[2,3-d]pyrimidin-4-yl)-2-pyridinyl)amino)-1-isoquinolinyl)amino)-1,3-dihydro-2H-indol-2-one]	–	–	11	10
Cc1ccc2c(Nc3ccc(Cl)cc3)ncnc2c1Nc1ncccc1-c1ncnc2[nH]cnc12 [Example 77, N-4-(4-chlorophenyl)-7-methyl-N-8-(3-(9H-purin-6-yl)-2-pyridinyl)-4,8-quinazolinediamine]	12	5	–	–
Cc1ccc2c(Nc3ccc4snc(C)c4c3)nccc2c1Nc1ncccc1-c1ncnc2[nH]ccc12 [Example 48, 6-methyl-N-1-(3-methyl-1,2-benzisothiazol-5-yl)-N-5-(3-(7H-pyrrolo[2,3-d]pyrimidin-4-yl)-2-pyridinyl)-1,5-isoquinolinediamine]	–	–	15	11
Cc1ccc2c(Nc3ccc4ncsc4c3)nccc2c1Nc1ncccc1-c1ncnc2[nH]ccc12 [Example 49, N-1-1,3-benzothiazol-6-yl-6-methyl-N-5-(3-(7H-pyrrolo[2,3-d]pyrimidin-4-yl)-2-pyridinyl)-1,5-isoquinolinediamine]	–	–	10	7
Cc1ccc2c(Nc3cccc(C(F)(F)F)c3)ncnc2c1Nc1ncccc1-c1ncnc2[nH]cnc12 [Example 73, 7-methyl-N-8-(3-(9H-purin-6-yl)-2-pyridinyl)-N-4-(3-(trifluoromethyl)phenyl)-4,8-quinazolinediamine]	33	26	–	–
Cc1ccc2c(Nc3cccc(C(F)(F)F)c3)nccc2c1Nc1ncccc1-c1ncnc2[nH]ncc12 [Example 65, 6-methyl-N-5-(3-(1H-pyrazolo[3,4-d]pyrimidin-4-yl)-2-pyridinyl)-N-1-(3-(trifluoromethyl)phenyl)-1,5-isoquinolinediamine]	–	–	8	8
Cc1ccc2c(Nc3ccc4c(c3)C(F)(F)C(=O)N4C)nccc2c1Nc1ncccc1-c1ncnc2[nH]ccc12 [Example 45, 3,3-difluoro-1-methyl-5-((6-methyl-5-((3-(7H-pyrrolo[2,3-d]pyrimidin-4-yl)-2-pyridinyl)amino)-1-isoquinolinyl)amino)-1,3-dihydro-2H-indol-2-one]	–	–	15	8
Cc1ccc2c(Nc3ccc(C#N)cc3)ncnc2c1Nc1ncccc1-c1ncnc2[nH]ccc12 [Example 60, 4-((7-methyl-8-((3-(7H-pyrrolo[2,3-d]pyrimidin-4-yl)-2-pyridinyl)amino)-4-quinazolinyl)amino)benzonitrile]	–	–	233	10
Cc1ccc2c(Nc3ccc(Cl)cc3)nccc2c1Nc1ncccc1-c1ncnc2[nH]ncc12 [Example 67, N5-(3-(1H-pyrazolo[3,4-d]pyrimidin-4-yl)pyridin-2-yl)-N1-(4-chlorophenyl)-6-methylisoquinoline-1,5-diamine]	–	–	3	5
Cc1ccc2c(Nc3ccc(C#N)cc3)nccc2c1Nc1ncccc1-c1ncnc2[nH]ncc12 [Example 71, 4-((6-methyl-5-((3-(1H-pyrazolo[3,4-d]pyrimidin-4-yl)-2-pyridinyl)amino)-1-isoquinolinyl)amino)benzonitrile]	12	4	–	–

From patent publication US8557830B2, “RAF kinase modulators and methods of use” (Amgen Inc., priority 2007, dated 2013)
